Results from publication PMC12800093 (Nature Communications, 2025).
Where a SMILES comes first, the peptide text is derived from it. Where no end group is shown, it is not given here. [ ]: non-standard residue; d: D form.

Key:
[1] = system: proliferating Mtb (H37Rv) cultures
[2] = system: nutrient-starved NRP Mtb H37Rv; assay: Kill curves with nutrient-starved non-replicating Mtb; type: cell-based, M. tuberculosis
[3] = system: hypoxia-induced NRP Mtb H37Ra; type: cell-based, M. tuberculosis
[4] = system: Mtb-secreted proteases (mc^2 6230 supernatant); conditions: proteolytic Mtb (mc^2 6230) supernatant, two weeks (0, 1, 7, 14 d), HPLC; n = 3 technical replicates
[5] = Human serum proteolytic stability; type: in vitro ADME; conditions: observed during serum proteolysis experiments, 25% v/v human serum

Molecule	incubation time at which regrowth of treated Mtb cultures was permitted [1] [days]	reduction in the first week of exposure [1]	activity under nutrient starvation conditions [2]	activity under hypoxic conditions [3]	Stability in the presence of Mtb-secreted proteases [4]	binding to human serum proteins [5]
NNC(=O)c1ccncc1 [INH, isoniazid, reference compound]	3	~ 2 log	inactive	inactive	–	–
CC(C)[C@@H](NC(=O)[C@H](N)Cc1c[nH]c2ccccc12)C(=O)N[C@@H](C(=O)N[C@H](Cc1c[nH]c2ccccc12)C(=O)N[C@H](Cc1c[nH]cn1)C(=O)N[C@H](CCCNC(=N)N)C(=O)N[C@H](CCCNC(=N)N)C(=O)N[C@H](Cc1c[nH]c2ccccc12)C(=O)N[C@H](Cc1c[nH]c2ccccc12)C(=O)N[C@H](Cc1c[nH]cn1)C(=O)N[C@H](Cc1c[nH]c2ccccc12)C(=O)N[C@H](CCCNC(=N)N)C(=O)N[C@H](CCCCN)C(N)=O)C(C)C [MAD1-RI] (H-[dW][dV][dV][dW][dH][dR][dR][dW][dW][dH][dW][dR][dK]-NH2)	–	–	–	–	generally remained stable up to two weeks	significant binding
KRWHWWRRHWVVW-NH2 [MAD1]	–	–	–	–	completely proteolyzed after 14 days	–
